Source: patent US8067424B2, “Selective inhibitors for cyclin-dependent kinases” (Emory University, priority 2007, dated 2011)
pIC50: −log10 of the molar value.

What was measured:
CDK2/cyclin A complex = target: T1, CDK2/cyclin A complex (Homo sapiens, UniProt P24941); assay: CDK2/cyclin A kinase assay (as for CDK7); format: biochemical; conditions: for remaining activity at 0.1 µM: 100 nM, mean of three (standard deviation), read-out: CDK2 % remaining kinase activity after incubation with 100 nM of compound
T1 construct: purchased Proqinase GmbH, Germany
Method in brief: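 Run as the CDK7 protocol with 50 ng CDK2/cyclin A or 100 ng CDK9/cyclin T; compound 30 min at 30 °C, then 2 μM ATP final for 20 min at 30 °C. ATP depletion by luciferase luminescence (PKLight), triplicate, normalised to no-enzyme and enzyme controls.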

CDK9/cyclin T complex = target: T2, CDK9/cyclin T complex (Homo sapiens, UniProt P50750); assay: CDK9/cyclin T kinase assay (as for CDK7); format: biochemical; conditions: 100 nM; mean of three (standard deviation); read-out: CDK9 % remaining kinase activity after incubation with 100 nM of compound
T2 construct: purchased Proqinase GmbH, Germany
T2 sequence (P50750 whole entry): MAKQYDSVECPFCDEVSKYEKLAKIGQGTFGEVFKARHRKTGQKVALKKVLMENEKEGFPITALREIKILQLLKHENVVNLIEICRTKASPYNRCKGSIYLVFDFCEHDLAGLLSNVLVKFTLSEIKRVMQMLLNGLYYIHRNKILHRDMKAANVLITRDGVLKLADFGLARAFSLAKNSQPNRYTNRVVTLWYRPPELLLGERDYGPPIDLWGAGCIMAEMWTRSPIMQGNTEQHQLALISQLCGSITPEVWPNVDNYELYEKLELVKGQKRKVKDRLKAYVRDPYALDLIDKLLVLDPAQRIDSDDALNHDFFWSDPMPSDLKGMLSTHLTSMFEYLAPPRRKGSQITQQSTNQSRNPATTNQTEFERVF
T2 sequence (O60563 whole entry partner): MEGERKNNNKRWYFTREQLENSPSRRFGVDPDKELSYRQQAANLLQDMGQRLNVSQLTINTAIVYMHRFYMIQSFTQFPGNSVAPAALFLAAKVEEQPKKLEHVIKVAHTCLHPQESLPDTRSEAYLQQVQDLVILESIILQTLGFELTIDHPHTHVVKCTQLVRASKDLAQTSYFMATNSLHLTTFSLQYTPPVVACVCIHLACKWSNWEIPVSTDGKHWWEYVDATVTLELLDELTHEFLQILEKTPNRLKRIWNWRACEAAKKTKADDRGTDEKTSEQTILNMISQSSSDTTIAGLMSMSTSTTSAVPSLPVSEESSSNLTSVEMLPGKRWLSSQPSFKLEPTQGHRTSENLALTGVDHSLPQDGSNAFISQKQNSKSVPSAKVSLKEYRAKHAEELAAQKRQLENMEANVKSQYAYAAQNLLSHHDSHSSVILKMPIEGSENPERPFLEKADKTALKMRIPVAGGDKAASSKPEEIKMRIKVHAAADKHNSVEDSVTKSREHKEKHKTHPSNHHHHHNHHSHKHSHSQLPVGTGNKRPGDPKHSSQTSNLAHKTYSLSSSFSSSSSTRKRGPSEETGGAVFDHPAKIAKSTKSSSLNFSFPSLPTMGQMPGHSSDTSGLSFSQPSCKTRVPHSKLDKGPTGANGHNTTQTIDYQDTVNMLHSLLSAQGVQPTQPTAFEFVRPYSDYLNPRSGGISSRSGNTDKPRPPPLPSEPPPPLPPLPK
Procedure: (§1) Prepared test compounds, prepared at concentrations of 1000, 100, 10, 1 and 0.1 μM. Diluted 1 in 40 in ddH2O and added 1 μl of test compound or DMSO (controls). • 3. Incubated at 30° C. for 30 mins in a water bath. • 4. Added 10 µl of ATP […] per reaction to get a final concentration of 2 μM ATP. • 5. Made up to 25 μl total volume with ddH2O • 6. Incubated for 20 min at 30° C. in a water bath • 7. Used the PKLight Kinase assay (Cambrex, UK), add to each reaction 10 μl of stop reaction and mix thoroughly. Incubated at room temp for 10 min. • 8. Added 20 μ1 Luciferase reaction mixture (Cambrex, UK) per reaction, and further incubated at room temp for 10 mins and determined luciferase activities according to manufacturer's methods. Kinase reactions were added to 96 well microplates and luciferase activities determined using a Packard TopCount NXT™ luminescent counter (TopCount 9904). The luminometer was programmed to take a read time of 0.1 integrated reading and emission of light was detectable at 560 nm. • 9. All kinase inhibition assays were carried out in triplicate. As the bioluminescent signal is inversely proportional to kinase activity, all values were deducted from the no enzyme control. These values were then plotted utilizing the enzyme control as a reference to 100% activity and compared to all other values.
Inhibition of CDK2 was assessed using 50 ng CDK2/cyclin A complex (Proqinase GmbH, Germany), as above for CDK7 Inhibition of CDK9 was assessed using 100 ng CDK9/cyclin T complex (Proqinase GmbH, Germany), as above for CDK7.

CDK4 [1] = target: T3, CDK4 (Homo sapiens, UniProt P11802); assay: CDK4 in vitro kinase inhibition (protocol similar to Example 14); format: biochemical; conditions: for remaining activity at 0.1 µM: 100 nM, mean of three (standard deviation), read-out: CDK4 % remaining kinase activity after incubation with 100 nM of compound; for pIC50: Table 7, mean of three experiments
T3 sequence (P11802 whole entry): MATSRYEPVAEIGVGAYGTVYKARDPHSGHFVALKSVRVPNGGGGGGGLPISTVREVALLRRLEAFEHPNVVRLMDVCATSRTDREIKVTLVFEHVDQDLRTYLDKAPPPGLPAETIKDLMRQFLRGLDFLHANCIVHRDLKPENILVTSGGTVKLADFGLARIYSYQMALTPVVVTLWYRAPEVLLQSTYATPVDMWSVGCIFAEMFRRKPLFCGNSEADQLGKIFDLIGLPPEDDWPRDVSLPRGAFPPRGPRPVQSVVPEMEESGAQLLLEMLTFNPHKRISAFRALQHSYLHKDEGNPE
T3 sequence (P24385 whole entry partner): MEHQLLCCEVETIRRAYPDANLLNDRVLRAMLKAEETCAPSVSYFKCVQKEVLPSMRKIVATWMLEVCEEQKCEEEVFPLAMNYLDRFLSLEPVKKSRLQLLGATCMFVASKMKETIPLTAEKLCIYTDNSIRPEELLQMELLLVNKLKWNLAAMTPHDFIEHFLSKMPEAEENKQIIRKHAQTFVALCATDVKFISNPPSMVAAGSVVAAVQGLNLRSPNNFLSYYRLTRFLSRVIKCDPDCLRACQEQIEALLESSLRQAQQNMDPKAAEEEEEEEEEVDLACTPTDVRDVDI
Procedure: as §1
(§2) This example provides in vitro kinase inhibition data for various compounds within the scope of the invention versus CDK 2, CDK 4, CDK, 5, CDK 7 and CDK 9. The protocol was similar to that shown in Example 14 Inhibition of the protein kinases was performed in triplicate using each compound at 100 nM.
(§3) This example provides in vitro kinase inhibition data for various compounds within the scope of the invention versus CDK 2, CDK 4, CDK, 5, CDK 7 and CDK 9.

CDK 5 = CDK 5 (Homo sapiens, UniProt Q00535); assay: CDK5 in vitro kinase inhibition (protocol similar to Example 14); format: biochemical; conditions: 100 nM; mean of three (standard deviation); read-out: CDK5 % remaining kinase activity after incubation with 100 nM of compound
Chain of CDK 5 (Q00535 whole entry): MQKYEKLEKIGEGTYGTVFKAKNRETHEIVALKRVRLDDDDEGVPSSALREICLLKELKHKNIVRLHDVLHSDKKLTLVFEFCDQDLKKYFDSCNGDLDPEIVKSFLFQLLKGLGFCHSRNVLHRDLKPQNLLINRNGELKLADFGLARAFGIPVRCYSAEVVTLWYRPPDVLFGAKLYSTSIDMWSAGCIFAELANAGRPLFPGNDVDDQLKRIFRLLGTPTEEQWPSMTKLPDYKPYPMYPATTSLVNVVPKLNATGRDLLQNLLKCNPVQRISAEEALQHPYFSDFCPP
Chain of CDK 5 (Q15078 whole entry partner): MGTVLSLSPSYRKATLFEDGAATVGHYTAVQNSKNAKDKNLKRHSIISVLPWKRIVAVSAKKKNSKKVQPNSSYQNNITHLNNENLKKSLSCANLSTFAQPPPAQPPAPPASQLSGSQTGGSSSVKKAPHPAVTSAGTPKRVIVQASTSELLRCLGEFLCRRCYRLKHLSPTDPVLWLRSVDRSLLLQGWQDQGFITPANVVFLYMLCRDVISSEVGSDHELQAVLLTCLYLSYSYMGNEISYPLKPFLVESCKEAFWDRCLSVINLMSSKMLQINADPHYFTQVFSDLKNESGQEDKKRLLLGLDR
Procedure: as §1, §2, §3

MCF-7 = assay: Growth assay (SRB, 72 hours); format: cell-based; conditions: MCF-7, 72 hours; for pIC50 / CC50: Homo sapiens, MCF7; for pIC50: read-out: Growth Inhibition MCF7 IC50; for CC50: read-out: Growth Inhibition MCF7 LC50
Procedure: Growth assay: The cell lines (MCF-7 and MDA-MB-231; purchased from ATCC, USA) were routinely passaged in Dulbecco's Modified Eagle's Medium (DMEM), supplemented with 10% fetal calf serum (FCS) and kept in a 37° C. incubator with 5% CO2. For the growth assay, 6000 cells were seeded into each well of 96-well plates in DMEM containing 10% FCS. Compounds prepared in DMSO were added to the medium at concentrations ranging from 0.4-100 μM. The cells were incubated for a further 72 hours, at which time they were fixed by the addition of 100 μl/well of ice-cold 40% TCA. The plates were left for 1 hour, washed in water and 100 μl of 0.4% (w/v) sulphorhodamine (SRB; Sigma-Aldrich, UK) prepared in 1% acetic acid was added. Plates were washed in 1% acetic acid to remove excess SRB reagent, air dried and bound dye was solubilized by the addition of 100 μl of 10 mM Tris base. The plates were read at 492 nm using a plate reader.

MCF-7 cell line = assay: cells; format: cell-based; conditions: Homo sapiens, MCF-7, SRB assay, 24 hours; for LC50 (concentration causing 50% net cell kill) / IC (total growth inhibition): MCF7, 24 h; for IC (total growth inhibition): read-out: TGI; for pIC50: MCF7, mean of three experiments, read-out: IC50
CAK (CDK7) = CAK (CDK7) (Homo sapiens, UniProt P50613); assay: 32P incorporation kinase assay, CAK
Chain of CAK (CDK7) (P50613 whole entry): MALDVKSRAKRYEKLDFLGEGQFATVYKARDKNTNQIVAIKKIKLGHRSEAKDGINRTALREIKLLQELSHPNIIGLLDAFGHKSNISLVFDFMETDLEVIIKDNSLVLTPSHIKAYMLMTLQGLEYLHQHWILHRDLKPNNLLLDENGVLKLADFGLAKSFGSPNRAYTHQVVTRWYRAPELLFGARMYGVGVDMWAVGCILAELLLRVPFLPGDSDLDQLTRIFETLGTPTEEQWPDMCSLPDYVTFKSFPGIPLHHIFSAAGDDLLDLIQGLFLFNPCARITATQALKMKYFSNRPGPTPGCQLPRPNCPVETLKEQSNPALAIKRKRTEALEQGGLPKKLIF
Chain of CAK (CDK7) (P51946 whole entry partner): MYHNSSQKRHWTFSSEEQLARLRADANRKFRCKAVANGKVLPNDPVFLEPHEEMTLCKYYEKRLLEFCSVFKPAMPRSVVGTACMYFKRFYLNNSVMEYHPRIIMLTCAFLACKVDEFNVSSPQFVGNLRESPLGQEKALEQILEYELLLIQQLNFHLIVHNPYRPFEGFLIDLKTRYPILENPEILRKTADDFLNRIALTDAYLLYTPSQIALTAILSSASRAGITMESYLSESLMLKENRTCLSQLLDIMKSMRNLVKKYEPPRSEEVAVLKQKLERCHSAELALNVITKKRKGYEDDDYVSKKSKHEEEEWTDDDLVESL
Chain of CAK (CDK7) (P51948 whole entry partner): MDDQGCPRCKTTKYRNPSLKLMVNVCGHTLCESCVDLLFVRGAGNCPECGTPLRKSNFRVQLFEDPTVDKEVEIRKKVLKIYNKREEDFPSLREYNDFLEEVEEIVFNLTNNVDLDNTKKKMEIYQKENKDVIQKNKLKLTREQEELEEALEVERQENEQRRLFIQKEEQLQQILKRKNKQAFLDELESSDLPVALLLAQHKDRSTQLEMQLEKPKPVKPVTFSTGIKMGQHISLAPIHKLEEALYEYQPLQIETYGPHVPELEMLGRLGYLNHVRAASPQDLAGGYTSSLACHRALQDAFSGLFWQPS

CDK4 [2] = target: T3, CDK4; assay: 32P incorporation kinase assay, CDK4

SMILES: CC(C)c1cnn2c(NCc3ccccc3F)cc(NC(CO)CCCCCCCc3cncnc3)nc12 (stereo not drawn) [ICEC0168]
- remaining activity at 0.1 µM (CDK2/cyclin A complex): 83%
- pIC50 (CDK2/cyclin A complex; Table 7, mean of three experiments, read-out: CDK2 kinase inhibition in vitro (IC50)): > 7.00
- remaining activity at 0.1 µM (CDK9/cyclin T complex): 91%
- remaining activity at 0.1 µM (CDK4 [1]): 96%
- pIC50 (CDK4 [1]): < 6.00
- remaining activity at 0.1 µM (CDK 5): 97%
- pIC50 (MCF-7): < 4.00
- CC50 (MCF-7): 35 µM
- Growth Inhibition MCF7 TGI (MCF-7): >100 µM
- LC50 (concentration causing 50% net cell kill) (MCF-7 cell line): 25 µM
- IC (total growth inhibition) (MCF-7 cell line): 55 µM
- pIC50 (MCF-7 cell line): < 4.00
- pIC50 (CAK (CDK7)): 6.92
- pIC50 (CDK4 [2]): < 6.00

SMILES: CC(C)c1cnn2c(NCc3ccccc3)cc(NCCCCCCC#N)nc12 [ICEC0179]
- remaining activity at 0.1 µM (CDK2/cyclin A complex): 52%
- remaining activity at 0.1 µM (CDK9/cyclin T complex): 97%
- remaining activity at 0.1 µM (CDK4 [1]): 99%
- pIC50 (CDK4 [1]): < 6.00
- remaining activity at 0.1 µM (CDK 5): 94%
- pIC50 (MCF-7): 4.46
- CC50 (MCF-7): > 100 µM
- Growth Inhibition MCF7 TGI (MCF-7): >100 µM
- LC50 (concentration causing 50% net cell kill) (MCF-7 cell line): 16 µM
- IC (total growth inhibition) (MCF-7 cell line): 26 µM
- pIC50 (MCF-7 cell line): 4.36
- pIC50 (CAK (CDK7)): 7.70
- pIC50 (CDK4 [2]): < 6.00
